Patent publication US20140193341A1, “HUMAN INDUCED NEURONAL CELLS” (priority 2011, published 2014)
Entries after “also recorded” stand apart in the source; their conditions may differ.

Columns and labels:
Type in all cases: cell-based, human
[1] = test system: AMPA and NMDA glutamatergic receptors; experiment: Glutamate puff evoked postsynaptic currents in hiN cells; details: glutamate 1 mM puff, NBQX 20 μM and APV 50 μM applied together
glutamatergic receptor = experiment: Spontaneous postsynaptic currents of hiN cells in murine glial coculture; details: hiN cells held at −70 mV, murine glial monolayer coculture; NBQX/APV bath application
[2] = test system: hiN cells integrated into host brain; experiment: Voltage-clamp recording of transplanted hiN cells in acutely prepared mouse brain slices; details: for spontaneous excitatory postsynaptic currents (sEPSCs) under glutamatergic block: NBQX 20 μM and APV 50 μM
γ-secretase = experiment: Aβ ELISA of media from hiN cultures treated with γ-secretase inhibitor; details: DAPT 10 μM; hiN cell cultures
Protocol: APP ELISA was performed using a human APP ELISA kit (Invitrogen, Camarillo, Calif.), according to the manufacturer's instruction. Absorbance was read on a VersaMax ELISA Microplate Reader (Molecular Devices, Inc. Sunnyvale, Calif.) at 450 nm. The amount of APP was normalized to the total cell protein (determined with the DC Protein Assay Reagent kit; Bio-Rad, Hercules, Calif.). sAPPIβ and Aβ ELISA were performed on supernatant media from hiN cell cultures at 21 days after viral transduction. […] was performed using BetaMarkTM sAPP Beta ELISA kit (Covance, Princeton, N.J.), according to the manufacturer's instruction. The chemiluminescence was read on a microplate luminometer ([…] Plus, TECAN, Männedorf Switzerland). Aβ quantification was performed by ELISA as described previously (Cirrito et al., 2003). Media was conditioned for 48 hr prior to harvesting. Samples were analyzed for Aβ40 or Aβ42 using specific sandwich ELISAs. Briefly, Aβ40, and Aβ42 were captured using monoclonal antibodies targeted against amino acids 35-40 (HJ2.0), or 33-42 (HJ7.4) of Aβ, respectively. The antibodies HJ2.0, HJ5.1 and HJ7.4 were gifts from David M. Holtzman. […] All assays were developed using Super Slow ELISA TMB (Sigma) and read on a VersaMax ELISA Microplate Reader (Molecular Devices, Inc. Sunnyvale, Calif.) at 650 nm. […]

[3] = test system: APP-positive puncta in hiN cells; experiment: APP immunostaining of hiN cells, APP-positive puncta area per cell; details: DAPT 10 μM, 18 hr
Protocol: Cells were fixed in 4% paraformaldehyde for 10 min at room temperature, followed by rinsing 3 times with phosphate-buffered saline (PBS). Cells were then permeabilized with 0.1% Triton X-100 in 1×PBS for 10 min at room temperature. After again rinsing 3 times with PBS, cells were incubated with blocking buffer containing 10% goat serum and 10 mg/ml BSA at room temperature for 1 hr. All primary antibodies were diluted in PBS. Cells were incubated with primary antibodies as listed at 4° C. for 12-16 hr, followed by the corresponding secondary antibody solutions in 37° C. for 1 hr. Cells were rinsed with 1×PBS three times followed by mounting of coverslips with anti-fade solution (Invitrogen). […]
Imaging was performed by laser-scanning confocal microscopy with a 63×/1.4 objective (LSM510, Can Zeiss) or by epifluorescence microscope (Olympus 1×71; Japan). hiN cell counts and fluorescence intensities were quantified by taking 10 to 35 images of randomly selected views per well. Subsequently, images were analyzed for cell counts and fluorescent intensity using Image J 1.42q software (National Institute of Health, USA). […]

secreted Aβ40 and Aβ42 = experiment: Aβ40/Aβ42 sandwich ELISA of hiN cell culture media with ibuprofen treatment; details: ibuprofen 250 μM
Protocol: sAPPβ ELISA was performed using BetaMar sAPP Beta ELISA, according to the manufacturer's instruction. Aβ quantification was performed by ELISAs (Cirrito et al., 2003). Media was conditioned for 48 hr prior to harvesting. Samples were analyzed for Aβ40 or Aβ42 using specific sandwich ELISAs. Briefly, Aβ40, and Aβ42 were captured using monoclonal antibodies targeted against amino acids 35-40 (HJ2.0), or 33-42 (HJ7.4) of Aβ, respectively. The antibodies HJ2.0, HJ5.1 and HJ7.4 were used. For Aβ40 and Aβ42 assays, a biotinylated central domain monoclonal antibody (HJ5.1) followed by streptavidin-poly-HRP-40 was used for detection. Assays were developed using Super Slow ELISA TMB and read on a VersaMax ELISA Microplate Reader. Aβ40, and Aβ42 standard curves were generated using purified peptides. The amount of Aβ was normalized to the cell density per well (relative to UND line as indicated in legend), and was expressed as pg/ml.

sodium channel = test system: sodium channel
Na+ channel = test system: Na+ channel
GABA receptors = experiment: GABA puff evoked currents in hiN cells; details: GABA 1 mM puff, picrotoxin 50 μM

Compound: N[C@H](CCCP(=O)(O)O)C(=O)O [APV, D(−)-2-amino-5-phosphonovaleric acid]
- glutamate-mediated postsynaptic currents [1]: could be blocked; also recorded: sensitive
- spontaneous postsynaptic currents in glial coculture (glutamatergic receptor): sensitive; also recorded: abolished
- spontaneous excitatory postsynaptic currents (sEPSCs) under glutamatergic block [2]: suppressed; also recorded: drastically reduced

Compound: C[C@H](NC(=O)Cc1cc(F)cc(F)c1)C(=O)N[C@H](C(=O)OC(C)(C)C)c1ccccc1 [DAPT]
- production of Aβ in media (γ-secretase): suppressed
- total APP-positive puncta area per cell, UND hiN cells [3]: partially phenocopied; also recorded: significant increase

Compound: NS(=O)(=O)c1cccc2c1c([N+](=O)[O-])cc1nc(O)c(O)nc12 [NBQX, 2,3-dihydroxy-6-nitro-7 sulphamoyl-benzo[f]quinoxaline-2,3-dione]
- glutamate-mediated postsynaptic currents [1]: could be blocked; also recorded: sensitive
- spontaneous postsynaptic currents in glial coculture (glutamatergic receptor): sensitive; also recorded: abolished
- spontaneous excitatory postsynaptic currents (sEPSCs) under glutamatergic block [2]: suppressed; also recorded: drastically reduced

Compound: CC(C)Cc1ccc(C(C)C(=O)O)cc1 (centres unmarked) [ibuprofen]
- increased Aβ40 and Aβ42 generation in FAD hiN cell cultures (secreted Aβ40 and Aβ42; FAD (Presenilin mutant) hiN cell cultures): failed to suppress; also recorded: resistant
- elevated levels of secreted Aβ40 and Aβ42 in SAD hiN cell cultures (secreted Aβ40 and Aβ42; SAD hiN cell cultures): suppressed

Compound: NC1=N[C@H](O)[C@H]2[C@H]3O[C@]4(O)O[C@@H]([C@@H](O)[C@@]2(N1)[C@@H]4O)[C@]3(O)CO [tetrodotoxin]
- depolarization-induced action potentials (sodium channel): could be inhibited; also recorded: could be blocked
- fast inward Na+ currents (Na+ channel): sensitive

Compound: picrotoxin
- GABA evoked currents (GABA receptors): sensitive
- frequency and amplitude of spontaneous excitatory postsynaptic currents (sEPSCs) ([2]; picrotoxin 50 μM): increased in frequency and amplitude
